From ChEMBL document CHEMBL2407054, “Synthesis and antimicrobial activity of imidazole and pyridine appended cholestane-based conjugates” (2013)
Converted amounts (≈) assume the structure as drawn.

Tests used:
Escherichia coli = assay: Antibacterial activity against Escherichia coli ATCC 25922 by M07-A9 CLSI method; assay type: functional
Staphylococcus aureus [1] = assay: Antibacterial activity against Staphylococcus aureus ATCC 25923 by M07-A9 CLSI method; assay type: functional
Proteus vulgaris = assay: Antibacterial activity against Proteus vulgaris 6059 by M07-A9 CLSI method; assay type: functional
[2] = system: Staphylococcus epidermidis; assay: Antibacterial activity against Staphylococcus epidermidis 887E by M07-A9 CLSI method; assay type: functional
Staphylococcus aureus [3] = assay: Antibacterial activity against Staphylococcus aureus Giorgio by M07-A9 CLSI method; assay type: functional
Bacillus cereus = assay: Antibacterial activity against Bacillus cereus ATCC 27348 by M07-A9 CLSI method; assay type: functional
Salmonella typhimurium = assay: Antibacterial activity against Salmonella typhimurium ATCC 13311 by M07-A9 CLSI method; assay type: functional, Salmonella enterica subsp. enterica serovar Typhimurium; conditions: Salmonella enterica
Staphylococcus aureus [4] = assay: Antibacterial activity against Staphylococcus aureus ATCC 6538P by M07-A9 CLSI method; assay type: functional
Staphylococcus aureus [5] = assay: Antibacterial activity against Staphylococcus aureus 241 by M07-A9 CLSI method; assay type: functional
Klebsiella aerogenes = assay: Antibacterial activity against Klebsiella aerogenes (SHV-1) 1976E by M07-A9 CLSI method; assay type: functional
Staphylococcus aureus [6] = assay: Antibacterial activity against Staphylococcus aureus 77 by M07-A9 CLSI method; assay type: functional
Pseudomonas aeruginosa = assay: Antibacterial activity against Pseudomonas aeruginosa 6065Y by M07-A9 CLSI method; assay type: functional
Bacillus licheniformis = assay: Antibacterial activity against Bacillus licheniformis EMR by M07-A9 CLSI method; assay type: functional
Bacillus subtilis = assay: Antibacterial activity against Bacillus subtilis ATCC 6633 by M07-A9 CLSI method; assay type: functional
Klebsiella pneumoniae = assay: Antibacterial activity against Klebsiella pneumoniae 2011E by M07-A9 CLSI method; assay type: functional
Enterococcus faecalis = assay: Antibacterial activity against Enterococcus faecalis ATCC 29212 by M07-A9 CLSI method; assay type: functional
Kocuria rhizophila = assay: Antibacterial activity against Micrococcus luteus ATCC 9341 by M07-A9 CLSI method; assay type: functional

| MIC (Escherichia coli) [µg/mL] | MIC (Staphylococcus aureus [1]) [µg/mL] | MIC (Proteus vulgaris) [µg/mL] | MIC [2] [µg/mL] | MIC (Staphylococcus aureus [3]) [µg/mL] | MIC (Bacillus cereus) [µg/mL] | MIC (Salmonella typhimurium) [µg/mL] | MIC (Staphylococcus aureus [4]) [µg/mL] | MIC (Staphylococcus aureus [5]) [µg/mL] | MIC (Klebsiella aerogenes) [µg/mL] | MIC (Staphylococcus aureus [6]) [µg/mL] | MIC (Pseudomonas aeruginosa) [µg/mL] | MIC (Bacillus licheniformis) [µg/mL] | MIC (Bacillus subtilis) [µg/mL] | MIC (Klebsiella pneumoniae) [µg/mL] | MIC (Enterococcus faecalis) [µg/mL] | MIC (Kocuria rhizophila) [µg/mL] | SMILES |
| --- | --- | --- | --- | --- | --- | --- | --- | --- | --- | --- | --- | --- | --- | --- | --- | --- | --- |
| > 32 | 16 (≈ 32.3 µM) | > 32 | 16 (≈ 32.3 µM) | 16 (≈ 32.3 µM) | 32 (≈ 64.5 µM) | > 32 | 8 (≈ 16.1 µM) | 32 (≈ 64.5 µM) | > 32 | 16 (≈ 32.3 µM) | > 32 | 32 (≈ 64.5 µM) | 32 (≈ 64.5 µM) | > 32 | 16 (≈ 32.3 µM) | 16 (≈ 32.3 µM) | CC(C)CCC[C@@H](C)[C@H]1CC[C@H]2[C@@H]3C(=O)C[C@H]4C[C@H](NCCc5cnc[nH]5)CC[C@]4(C)[C@H]3CC[C@]12C |
| > 32 | 2 (≈ 3.23 µM) | > 32 | 4 (≈ 6.46 µM) | 4 (≈ 6.46 µM) | 8 (≈ 12.9 µM) | > 32 | 2 (≈ 3.23 µM) | 4 (≈ 6.46 µM) | > 32 | 4 (≈ 6.46 µM) | > 32 | 4 (≈ 6.46 µM) | 4 (≈ 6.46 µM) | > 32 | 4 (≈ 6.46 µM) | 4 (≈ 6.46 µM) | CC(C)CCC[C@@H](C)[C@H]1CC[C@H]2[C@@H]3[C@H](NCCCn4ccnc4)C[C@H]4C[C@H](NCCCn5ccnc5)CC[C@]4(C)[C@H]3CC[C@]12C |
| > 32 | 8 (≈ 13.1 µM) | > 32 | 8 (≈ 13.1 µM) | 8 (≈ 13.1 µM) | 32 (≈ 52.2 µM) | > 32 | 8 (≈ 13.1 µM) | 8 (≈ 13.1 µM) | > 32 | 16 (≈ 26.1 µM) | > 32 | 8 (≈ 13.1 µM) | 8 (≈ 13.1 µM) | > 32 | 16 (≈ 26.1 µM) | 8 (≈ 13.1 µM) | CC(C)CCC[C@@H](C)[C@H]1CC[C@H]2[C@@H]3[C@H](NCCc4ccccn4)C[C@H]4C[C@H](NCCc5ccccn5)CC[C@]4(C)[C@H]3CC[C@]12C |
| > 32 | 8 (≈ 15.7 µM) | > 32 | 16 (≈ 31.4 µM) | 8 (≈ 15.7 µM) | 16 (≈ 31.4 µM) | > 32 | 8 (≈ 15.7 µM) | 32 (≈ 62.8 µM) | > 32 | 8 (≈ 15.7 µM) | > 32 | 32 (≈ 62.8 µM) | 8 (≈ 15.7 µM) | > 32 | 32 (≈ 62.8 µM) | 8 (≈ 15.7 µM) | CC(C)CCC[C@@H](C)[C@H]1CC[C@H]2[C@@H]3C(=O)C[C@H]4C[C@H](NCCCn5ccnc5)CC[C@]4(C)[C@H]3CC[C@]12C |
| > 32 | 4 (≈ 8.12 µM) | > 32 | 4 (≈ 8.12 µM) | 4 (≈ 8.12 µM) | 16 (≈ 32.5 µM) | > 32 | 2 (≈ 4.06 µM) | 32 (≈ 64.9 µM) | > 32 | 32 (≈ 64.9 µM) | > 32 | 32 (≈ 64.9 µM) | 4 (≈ 8.12 µM) | > 32 | 8 (≈ 16.2 µM) | 8 (≈ 16.2 µM) | CC(C)CCC[C@@H](C)[C@H]1CC[C@H]2[C@@H]3C(=O)C[C@H]4C[C@H](NCc5ccccn5)CC[C@]4(C)[C@H]3CC[C@]12C |
| > 32 | 8 (≈ 15.8 µM) | > 32 | 16 (≈ 31.6 µM) | 8 (≈ 15.8 µM) | > 32 | > 32 | 8 (≈ 15.8 µM) | > 32 | > 32 | 32 (≈ 63.1 µM) | > 32 | 32 (≈ 63.1 µM) | 32 (≈ 63.1 µM) | > 32 | 16 (≈ 31.6 µM) | 32 (≈ 63.1 µM) | CC(C)CCC[C@@H](C)[C@H]1CC[C@H]2[C@@H]3C(=O)C[C@H]4C[C@H](NCCc5ccccn5)CC[C@]4(C)[C@H]3CC[C@]12C |
| > 32 | 2 (≈ 3.42 µM) | > 32 | 1 (≈ 1.71 µM) | 2 (≈ 3.42 µM) | 8 (≈ 13.7 µM) | > 32 | 2 (≈ 3.42 µM) | 2 (≈ 3.42 µM) | > 32 | 2 (≈ 3.42 µM) | > 32 | 2 (≈ 3.42 µM) | 2 (≈ 3.42 µM) | > 32 | 4 (≈ 6.84 µM) | 2 (≈ 3.42 µM) | CC(C)CCC[C@@H](C)[C@H]1CC[C@H]2[C@@H]3[C@H](NCc4ccccn4)C[C@H]4C[C@H](NCc5ccccn5)CC[C@]4(C)[C@H]3CC[C@]12C |
| > 32 | 8 (≈ 16.1 µM) | > 32 | 16 (≈ 32.3 µM) | 8 (≈ 16.1 µM) | 32 (≈ 64.5 µM) | > 32 | 8 (≈ 16.1 µM) | 16 (≈ 32.3 µM) | > 32 | > 32 | > 32 | 32 (≈ 64.5 µM) | 32 (≈ 64.5 µM) | > 32 | 8 (≈ 16.1 µM) | 8 (≈ 16.1 µM) | CC(C)CCC[C@@H](C)[C@H]1CC[C@H]2[C@@H]3C(=O)C[C@H]4C[C@H](NCCn5ccnc5)CC[C@]4(C)[C@H]3CC[C@]12C |
| > 32 | 8 (≈ 13.5 µM) | > 32 | 16 (≈ 27.1 µM) | 4 (≈ 6.77 µM) | 16 (≈ 27.1 µM) | > 32 | 4 (≈ 6.77 µM) | 16 (≈ 27.1 µM) | > 32 | 4 (≈ 6.77 µM) | > 32 | 32 (≈ 54.2 µM) | 8 (≈ 13.5 µM) | > 32 | 16 (≈ 27.1 µM) | 4 (≈ 6.77 µM) | CC(C)CCC[C@@H](C)[C@H]1CC[C@H]2[C@@H]3[C@H](NCCn4ccnc4)C[C@H]4C[C@H](NCCn5ccnc5)CC[C@]4(C)[C@H]3CC[C@]12C |

| SMILES | MIC (Escherichia coli) [µg/mL] | MIC (Staphylococcus aureus [1]) [µg/mL] | MIC (Proteus vulgaris) [µg/mL] | MIC [2] [µg/mL] | MIC (Staphylococcus aureus [3]) [µg/mL] | MIC (Bacillus cereus) [µg/mL] | MIC (Salmonella typhimurium) [µg/mL] | MIC (Staphylococcus aureus [4]) [µg/mL] | MIC (Staphylococcus aureus [5]) [µg/mL] | MIC (Klebsiella aerogenes) [µg/mL] | MIC (Staphylococcus aureus [6]) [µg/mL] | MIC (Pseudomonas aeruginosa) [µg/mL] | MIC (Bacillus licheniformis) [µg/mL] | MIC (Bacillus subtilis) [µg/mL] | MIC (Klebsiella pneumoniae) [µg/mL] | MIC (Enterococcus faecalis) [µg/mL] | MIC (Kocuria rhizophila) [µg/mL] |
| --- | --- | --- | --- | --- | --- | --- | --- | --- | --- | --- | --- | --- | --- | --- | --- | --- | --- |
| Cc1onc(-c2ccccc2)c1C(=O)N[C@@H]1C(=O)N2[C@@H]1SC(C)(C)[C@@H]2C(=O)O [OXACILLIN] | > 32 | 0.25 (≈ 0.623 µM) | > 32 | > 32 | 0.5 (≈ 1.25 µM) | > 32 | > 32 | 0.25 (≈ 0.623 µM) | > 32 | > 32 | 4 (≈ 9.96 µM) | > 32 | > 32 | 16 (≈ 39.9 µM) | > 32 | 32 (≈ 79.7 µM) | 0.03 (≈ 0.0747 µM) |
| CC(C)CCC[C@@H](C)[C@H]1CC[C@H]2[C@@H]3[C@H](NCCc4cnc[nH]4)C[C@H]4C[C@H](NCCc5cnc[nH]5)CC[C@]4(C)[C@H]3CC[C@]12C [3ALPHA,7ALPHA-BIS[2-(5-IMIDAZOLYL)ETHYL]AMINO-5ALPHA-CHOLESTANE] | > 32 | 8 (≈ 13.5 µM) | > 32 | 8 (≈ 13.5 µM) | 8 (≈ 13.5 µM) | 32 (≈ 54.2 µM) | > 32 | 4 (≈ 6.77 µM) | 8 (≈ 13.5 µM) | > 32 | 8 (≈ 13.5 µM) | > 32 | > 32 | > 32 | > 32 | 8 (≈ 13.5 µM) | 16 (≈ 27.1 µM) |
| CN[C@H](CC(C)C)C(=O)N[C@H]1C(=O)N[C@@H](CC(N)=O)C(=O)N[C@H]2C(=O)N[C@H]3C(=O)N[C@H](C(=O)N[C@H](C(=O)O)c4cc(O)cc(O)c4-c4cc3ccc4O)[C@H](O)c3ccc(c(Cl)c3)Oc3cc2cc(c3O[C@@H]2O[C@H](CO)[C@@H](O)[C@H](O)[C@H]2O[C@H]2C[C@](C)(N)[C@H](O)[C@H](C)O2)Oc2ccc(cc2Cl)[C@H]1O [VANCOMYCIN] | > 32 |  | > 32 |  |  | > 32 | > 32 |  |  | > 32 |  | > 32 | > 32 | 2 (≈ 1.38 µM) | > 32 | 2 (≈ 1.38 µM) | 1 (≈ 0.69 µM) |
